Data taken from publication PMC9317397, “Design and Synthesis of Hepatitis B Virus (HBV) Capsid Assembly Modulators and Evaluation of Their Activity in Mammalian Cell Model” (Pharmaceuticals, 2022).
Entries after “also recorded” stand apart in the source; their conditions may differ. Like-named read-outs stand apart in the source and are kept apart here.

Columns and labels:
[1] = tested on: BHK-21 cells; assay: Cytopathic effect (cell morphology, proliferation, trypan blue) in non-infected BHK-21 cells; format: cell-based, hamster; conditions: 24 h; for The Highest Non-Toxic Concentration: non-infected BHK-21 cells, no noticeable cytopathic effect
Procedure: To define HAP compound non-toxic concentrations for initial studies, non-infected BHK-21 cells were incubated with compounds at four different concentrations for 24 h (25 μM, 50 μM, 100 μM, and 200 μM), and the cytopathic effects were evaluated by analysis of cell morphology and proliferation changes. […] 1c, 1j, 1k and 4a, and 7b. The reference comp.
The cytopathic effect of the compounds was estimated by phase contrast microscopy and standard trypan blue staining, and the cells were counted using an automatic cell counter (Invitrogen). BHK-21 and HepG2.2.15 cells were incubated for 24 h with the studied compounds at […] (25, 50, 100, 150 and 200 μM) and the cell morphology was controlled under microscope to evaluate cytopathic effects (Table 1, the highest non-toxic concentration).

[2] = target: HBV capsid assembly (full-length HBc protein, genotype D1) (Hepatitis B virus genotype D subtype ayw, UniProt P03146, A80I/T33N/V74G); assay: HBV capsid assembly in SFV1/HBc-infected HBc-producing BHK-21 cells, native agarose gel anti-HBc immunoblot; format: cell-based; conditions: HBc-producing BHK-21 cells; for Type of effect on HBV capsid assembly in dose-dependent experiments: 0.1–50 µM, 24 h (Figure 6); for Effect on Capsid Assembly / Effect on Capsid Assembly, Starting Concentration: 24 h, native agarose immunoblot; for Effect on capsid production / mobility in initial test: 1–50 μM, 24 h (Figure 5)
[3] = tested on: HBV; conditions: HepG2.2.15 cells; for HBV DNA, % from control: six days, secreted virion DNA; for Decrease in the amount of HBV virion release compared with control: Figure 8
[4] = tested on: primary hepatocytes; set-up: method as in PMID 25921762; conditions: cited from earlier work
[5] = tested on: HBV; assay: microbe, parasite or virus in culture; conditions: Hepatitis B virus, HepG2.2.15, 144 h, read-out: EC50 (50% reduction of HBV DNA), HepG2.2.15 cells, six days, 0–20 µM
[6] = tested on: BHK-21 cells; assay: MTT viability assay in BHK-21 cells; format: cell-based, hamster; conditions: 6.125–200 µM, 24 h
Procedure: (§1) BHK-21 cells were incubated with different concentrations (6.125, 12.25, 25, 50, 100, and 200 µM) of the respective compounds and the cell viability was calculated as a percentage from untreated cells (100%) (Figure 7). In general, the results confirmed the morphological observation of relatively low cytotoxicity for tested compounds at concentrations below 100 µM.
(§2) Additionally, cell viability was determined by tetrazolium salt-based assay using the Vybrant MTT Cell Proliferation kit (Thermo Fisher Scientific, Waltham, MA, USA) or more sensitive CCK-8 kit (Abcam). First, the cell numbers and protocol were optimized for BHK-21 and HepG2.2.15 cells, as indicated in the MTT assay kit or CCK-8 reagent manufacturer’s protocol, and standard curves with OD values were created and evaluated.
(§3) In order to evaluate the toxicity of selected HAP compounds in the medium, 1.3 × 10^4 BHK-21 were seeded per well in 96-well plates and treated with the studied compounds for 24 h at concentrations 6.125; 12.25; 25; 50; 100; and 200 μM. Control cells without HAP compounds and MTT-free cell media were included in the experiments. The MTT test was performed according to the full protocol version (Thermo Fisher Scientific).

[7] = tested on: HepG2.2.15 cells; assay: MTT viability test in HepG2.2.15 cells (TC50); format: cell-based, human; conditions: 48 h, 0–200 µM
Procedure: In order to compare the cytotoxicity of compounds 1d and 1e in HBV producing HepG2.2.15 cells, the toxic concentrations (TC50 values) were estimated (Figure 9B,C).
In order to calculate the median of the toxic concentration (TC50) of the compounds, 1.33 × 10^5 HepG2.2.15 cells per well were seeded into a 24-well plate. After 24 h, the cells were treated with the test compounds at different concentrations (0, 50, 100, 150, 200 μM) and incubated for 48 h at 37 °C. All experiments were carried out in three identical repeats and the coefficient of variation and standard deviation were calculated from at least two independent experiments.
The percent inhibition at each compound concentration was calculated by normalization of the signals to the signals from non-treated HepG2.2.15 cells. […] Data points and error bars represent the means and standard deviations from at least two independent experiments, respectively. Comparisons between data groups were performed using the unpaired t test, with p values < 0.05 being considered statistically significant.

[8] = target: HBc protein (Hepatitis B virus genotype D subtype ayw, UniProt P03146, A80I/T33N/V74G); assay: Anti-HBc immunostaining and confocal microscopy of HBc-producing BHK-21 cells; format: cell-based; conditions: 20 μM and 50 μM, 24 h
[9] = target: HBV capsids (HBc assembly products) (Hepatitis B virus genotype D subtype ayw, UniProt P03146, A80I/T33N/V74G); assay: Electron microscopy of HBc assembly products purified from treated BHK-21 cells; format: cell-based; conditions: 50 μM, 24 h, sucrose cushion pellet
[10] = MTT viability assay in BHK-21 cells; format: cell-based, hamster; conditions: hamster, 200 µM, read-out: Cell viability, percentage from untreated cells
Procedure: as §1, §2, §3

HBV capsid assembly (full-length HBc protein, genotype D1), sequence (P03146 whole entry A80I/T33N/V74G, looked up): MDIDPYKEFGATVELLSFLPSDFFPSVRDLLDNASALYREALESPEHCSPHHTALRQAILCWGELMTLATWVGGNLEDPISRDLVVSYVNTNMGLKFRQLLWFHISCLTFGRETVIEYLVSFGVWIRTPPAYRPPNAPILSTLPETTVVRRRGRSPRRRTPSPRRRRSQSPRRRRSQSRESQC
HBc protein, sequence (P03146 whole entry A80I/T33N/V74G, looked up): as above
HBV capsids (HBc assembly products), sequence (P03146 whole entry A80I/T33N/V74G, looked up): as above

Structure (SMILES) | Concentration revealing cell toxicity signs ([1]; BHK-21 cells) [µM] | The Highest Non-Toxic Concentration [1] [µM] | Type of effect on HBV capsid assembly in dose-dependent experiments [2] | Effect on Capsid Assembly [2] | Effect on Capsid Assembly, Starting Concentration [2] [µM] | HBV DNA, % from control ([3]; 10 µM) [%] | Toxic concentration [4] [µM] | EC50 [5] [µM] | Effect on capsid production / mobility in initial test [2] | Cell viability compared to untreated control [6] | TC50 [7] [µM] | Intracellular localization of HBc [8] | Morphology of HBc assembly products by electron microscopy [9] | SI (TC50/EC50) [3] | HBV DNA, % from control ([3]; 20 µM) [%] | Decrease in the amount of HBV virion release compared with control [3] [%] | Effect on capsids at lower concentrations ([2]; 5 μM and 10 μM) | Effect on capsids at higher concentrations ([2]; 20 μM and 50 μM) | viability at 24 h, 200 µM [10] [%]
COC(=O)C1=C(C)NC(c2ncc(F)cc2F)=NC1c1ccc(F)cc1Cl (stereo not drawn) [1a, Bay 41-4109, reference compound] | 100 | 100 | dose-dependent HBc signal decrease | Dose dependent capsid signal decrease | 1 | 2.5 | 5.06 | 0.35 |  |  |  |  |  |  |  |  |  |  | 
CCOCCOC(=O)C1=C(C)NC(c2ncc(F)cc2F)=NC1c1ccc(F)cc1Cl (stereo not drawn) [1d] |  |  | dose-dependent HBc products accumulation | HBc accumulation, aggregates/or incorrect capsid structures | 5 |  |  | 6.24 | misfolding of the HBV capsid | did not demonstrate the difference in cell viability | 175 | speckled dot pattern of HBc distribution in the cytoplasm; also recorded: blocked the intranuclear transport of HBc protein | irregularly shaped structures that resembled capsids of the wrong size and incorrect symmetry, as well as the capsid aggregates | 28 | 6.5 | ≤ 93.5 |  |  | 
CC1=C(C(=O)OCCOC(C)C)C(c2ccc(F)cc2Cl)N=C(c2ncc(F)cc2F)N1 (stereo not drawn) [1e] |  | 100 | dose-dependent HBc signal decrease | Dose dependent capsid signal decrease | 10 |  |  | 9.16 | misfolding of the HBV capsid |  | 98 |  |  | 11 | 6.3 | ≤ 93.5 | capsid stabilization and accumulation | capsids were almost non-detectable | > 90
